# According to paper PMC7156458, “Synthetic biology based construction of biological activity-related library of fungal decalin-containing diterpenoid pyrones” (Nature Communications, 2020):
# “And” between values parts separate entries of the source, which are not always exact repeats. Equal values may be shown once. Read-outs that look alike come from different tables or passages of the source.
# What was measured:
# MAGI cells = test: cytotoxicity in the anti-HIV assay (CC50); type: cell-based; conditions: for Cytotoxicity: single determinations
# Source text: We examined the inhibitory activities of DDPs against various species of bacteria (both gram-negative and gram-positive bacteria), fungi and viruses. […] In contrast, preliminary screening of the DDPs for anti-viral agents with hepatitis B virus (HBV), measles virus (MV), Epstein-Barr virus (EBV), herpes simplex virus (HSV) and human immunodeficiency virus-1 (HIV-1) indicated their selective inhibition of HIV.
# Policy information about cell lines […]
# HeLa-CD4-LTR/ !-galactosidase (MAGI) cells provided by Dr. J. Overbaugh through the NIH AIDS Research and Reference […]
# MAGI cells were authenticated by the NIH.
# Mycoplasma contamination All the cell lines tested negative for mycoplasma contamination.
# Commonly misidentified lines No commonly mis-identified cell lines. […]
# l(2)mbn cells = test: cytotoxicity in Drosophila l(2)mbn cells; type: cell-based; conditions: for Luminescence Raw1: replicate 1; for Luminescence Raw2: replicate 2; for IC50: Drosophila melanogaster, cytotoxicity
# Experimental: (§1) We screened the DDPs on the Drosophila assay system for cytotoxicity, inhibitory activity of innate immune signalling and insecticidal activity. The cytotoxicity of the DDPs was evaluated using two cell lines, embryonic macrophage-derived DL1 cells[58]–[60] and larval blood cell-derived l(2)mbn cells, and their IC50 values are listed in Supplementary Table 23.
# [1] = cytotoxicity in Drosophila l(2)mbn cells; type: cell-based; conditions: Drosophila, l(2)mbn cells (larval blood cell-derived)
# Experimental: as §1
# MCF-7 cells = test: cell cytotoxic effects against MCF-7 cells (72 h), A490; type: cell-based, human; conditions: MCF-7, 72 h
# Experimental: !" ' ' '! !" ' ' '! !" ' ' '!!" ' ' '!!" ' ' '!!" ' ' '!!" ' ' '!!" ' ' '! !" ' ' '! !" ' ' '! !" ' ' '! !"#$
# ( % ) * '! '' '# '+ '$ '( '%
# ! " # $ %& %% %' %( %) %! %"
# !" ' ' '! !" ' ' '!!" ' ' '!!" ' ' '!!" ' ' '!!" ' ' '!!" ' ' '! !" ' ' '! !" ' ' '! !" ' ' '! !" ' ' '! […]
# Supplementary Fig. 46. a, Cell cytotoxic effects of DDPs against MCF-7 cells (72 h).
# dose dependent cytotoxic effects against MCF-7 cells were tested their inhibitory activity against mammosphere
# formation. Compound in blue (16) was also performed mammosphere assay as negative control. Data represent
# mean±s.d. from three independent replicate experiments. […]
# Source data underlying Supplementary Figure 46a are provided in a Source Data file. […]
# [2] = cytotoxicity in Drosophila DL1 cells; type: cell-based; conditions: Drosophila, DL1 cells (embryonic macrophage-derived), DL1 cells
# Experimental: as §1
# DL1 cells = test: cytotoxicity in Drosophila DL1 cells; type: cell-based; conditions: DL1 cells; for IC50: Drosophila melanogaster, cytotoxicity
# Experimental: as §1
# [3] = replicate 1, relative to DMSO 1%, read-out: % viability, viability 1
# [4] = replicate 2, relative to DMSO 1%, read-out: % viability, viability 2
# [5] = average of two replicates, read-out: IC50 Average
# [6] = replicate 1, read-out: IC50 (1)
# [7] = replicate 2, read-out: IC50 (2)
smiles,measurement,setting,value
CC(C)=CCC/C(C)=C/CC/C(C)=C/CC/C(C)=C/Cc1c(O)c(C)c(C)oc1=O [Compound 2],Cytotoxicity,MAGI cells,>10 µM
C=C1CCC2C(C)(CC(=O)C=C(C)C)C(O)CCC2(C)C1Cc1c(OC)oc(C)c(C)c1=O (stereo not shown) [Compound 25],Luminescence Raw1,l(2)mbn cells; 0.04 µM,3193720
same,Luminescence Raw2,l(2)mbn cells; 0.04 µM,3243139
same,Luminescence Raw1,l(2)mbn cells; 0.2 µM,3343782
same,Luminescence Raw2,l(2)mbn cells; 0.2 µM,3450197
same,Luminescence Raw1,l(2)mbn cells; 1 µM,3097409
same,Luminescence Raw2,l(2)mbn cells; 1 µM,3603150
same,Luminescence Raw1,l(2)mbn cells; 4 µM,3528838
same,Luminescence Raw2,l(2)mbn cells; 4 µM,3786770
same,Luminescence Raw1,l(2)mbn cells; 10 µM,3209953
same,Luminescence Raw2,l(2)mbn cells; 10 µM,3480138
same,Luminescence Raw1,l(2)mbn cells; 20 µM,2234271
same,Luminescence Raw2,l(2)mbn cells; 20 µM,2495041
same,IC50,"l(2)mbn cells; average±SEM, read-out: IC50",> 20 µM
same,viability at 0.04 µM,[1]; [3],124%
same,viability at 0.04 µM,[1]; [4],126%
same,viability at 0.2 µM,[1]; [3],130%
same,viability at 0.2 µM,[1]; [4],134%
same,viability at 1 µM,[1]; [3],121%
same,viability at 1 µM,[1]; [4],140%
same,viability at 4 µM,[1]; [3],137%
same,viability at 4 µM,[1]; [4],148%
same,viability at 10 µM,[1]; [3],125%
same,viability at 10 µM,[1]; [4],136%
same,viability at 20 µM,[1]; [3],87.1%
same,viability at 20 µM,[1]; [4],97.2%
same,viability at 0.1 µM,"MCF-7 cells; Homo sapiens, MCF7, 72 h, 0.1 µM (DMSO 0.002%), read-out: A490 (control =1) ave",78.9%
same,viability at 1 µM,"MCF-7 cells; Homo sapiens, MCF7, 72 h, 1 µM (DMSO 0.02%), read-out: A490 (control =1) ave",103%
same,viability at 10 µM,"MCF-7 cells; Homo sapiens, MCF7, 72 h, 10 µM (DMSO 0.2%), read-out: A490 (control =1) ave",112%
same,A490 ave,"MCF-7 cells; 0.1 µM (DMSO 0.002%), control 1.064",0.839
same,A490 ave,"MCF-7 cells; 1 µM (DMSO 0.02%), control 1.104",1.141
same,A490 ave,"MCF-7 cells; 10 µM (DMSO 0.2%), control 1.049",1.171
same,viability at 0.04 µM,[2]; [3],135%
same,viability at 0.04 µM,[2]; [4],136%
same,viability at 0.2 µM,[2]; [3],130%
same,viability at 0.2 µM,[2]; [4],129%
same,viability at 1 µM,[2]; [3],128%
same,viability at 1 µM,[2]; [4],133%
same,viability at 4 µM,[2]; [3],130%
same,viability at 4 µM,[2]; [4],124%
same,viability at 10 µM,[2]; [3],110%
same,viability at 10 µM,[2]; [4],127%
same,viability at 20 µM,[2]; [3],19.2%
same,viability at 20 µM,[2]; [4],27.2%
same,Luminescence Raw1,"DL1 cells; 0.04 µM, replicate 1",2772839
same,Luminescence Raw2,"DL1 cells; 0.04 µM, replicate 2",2800252
same,Luminescence Raw1,"DL1 cells; 0.2 µM, replicate 1",2673287
same,Luminescence Raw2,"DL1 cells; 0.2 µM, replicate 2",2657777
same,Luminescence Raw1,"DL1 cells; 1 µM, replicate 1",2635775
same,Luminescence Raw2,"DL1 cells; 1 µM, replicate 2",2736769
same,Luminescence Raw1,"DL1 cells; 4 µM, replicate 1",2684468
same,Luminescence Raw2,"DL1 cells; 4 µM, replicate 2",2551374
same,Luminescence Raw1,"DL1 cells; 10 µM, replicate 1",2257781
same,Luminescence Raw2,"DL1 cells; 10 µM, replicate 2",2619904
same,Luminescence Raw1,"DL1 cells; 20 µM, replicate 1",396244
same,Luminescence Raw2,"DL1 cells; 20 µM, replicate 2",560668
same,IC50,DL1 cells; [5],17.2 µM
same,IC50,"DL1 cells; average±SEM, read-out: IC50",17.2 ± 2.06 µM
same,IC50,DL1 cells; [6],15.1 µM
same,IC50,DL1 cells; [7],19.2 µM
C=C1CCC2C(C)(CCC=C(C)C)C(=O)CCC2(C)C1Cc1c(O)c(C)c(C)oc1=O (stereo not shown) [Compound 8],Luminescence Raw1,l(2)mbn cells; 0.04 µM,5399824
same,Luminescence Raw2,l(2)mbn cells; 0.04 µM,5163481
same,Luminescence Raw1,l(2)mbn cells; 0.2 µM,5509158
same,Luminescence Raw2,l(2)mbn cells; 0.2 µM,5734687
same,Luminescence Raw1,l(2)mbn cells; 1 µM,5444928
same,Luminescence Raw2,l(2)mbn cells; 1 µM,5762112
same,Luminescence Raw1,l(2)mbn cells; 4 µM,4437905
same,Luminescence Raw2,l(2)mbn cells; 4 µM,5343895
same,Luminescence Raw1,l(2)mbn cells; 10 µM,177623
same,Luminescence Raw2,l(2)mbn cells; 10 µM,184474
same,Luminescence Raw1,l(2)mbn cells; 20 µM,114164
same,Luminescence Raw2,l(2)mbn cells; 20 µM,158874
same,IC50,l(2)mbn cells; [5],5.14 µM
same,IC50,"l(2)mbn cells; average±SEM, read-out: IC50",5.14 ± 0.3 µM
same,IC50,l(2)mbn cells; [6],4.83 µM
same,IC50,l(2)mbn cells; [7],5.44 µM
same,viability at 0.04 µM,[1]; [3],86%
same,viability at 0.04 µM,[1]; [4],82.2%
same,viability at 0.2 µM,[1]; [3],87.7%
same,viability at 0.2 µM,[1]; [4],91.3%
same,viability at 1 µM,[1]; [3],86.7%
same,viability at 1 µM,[1]; [4],91.8%
same,viability at 4 µM,[1]; [3],70.7%
same,viability at 4 µM,[1]; [4],85.1%
same,viability at 10 µM,[1]; [3],2.83%
same,viability at 10 µM,[1]; [4],2.94%
same,viability at 20 µM,[1]; [3],1.82%
same,viability at 20 µM,[1]; [4],2.53%
same,Cytotoxicity Avg.,MAGI cells; average of numeric determinations,8.816 µM
same,Cytotoxicity,MAGI cells,9.604 µM and 7.239 µM
same,viability at 0.04 µM,[2]; [3],189%
same,viability at 0.04 µM,[2]; [4],219%
same,viability at 0.2 µM,[2]; [3],185%
same,viability at 0.2 µM,[2]; [4],208%
same,viability at 1 µM,[2]; [3],129%
same,viability at 1 µM,[2]; [4],131%
same,viability at 4 µM,[2]; [3],18.2%
same,viability at 4 µM,[2]; [4],20.6%
same,viability at 10 µM,[2]; [3],22.8%
same,viability at 10 µM,[2]; [4],24.1%
same,viability at 20 µM,[2]; [3],21.6%
same,viability at 20 µM,[2]; [4],21.3%
same,Luminescence Raw1,"DL1 cells; 0.04 µM, replicate 1",2594102
same,Luminescence Raw2,"DL1 cells; 0.04 µM, replicate 2",2999528
same,Luminescence Raw1,"DL1 cells; 0.2 µM, replicate 1",2536752
same,Luminescence Raw2,"DL1 cells; 0.2 µM, replicate 2",2851638
same,Luminescence Raw1,"DL1 cells; 1 µM, replicate 1",1767451
same,Luminescence Raw2,"DL1 cells; 1 µM, replicate 2",1791254
same,Luminescence Raw1,"DL1 cells; 4 µM, replicate 1",250019
same,Luminescence Raw2,"DL1 cells; 4 µM, replicate 2",282109
same,Luminescence Raw1,"DL1 cells; 10 µM, replicate 1",313118
same,Luminescence Raw2,"DL1 cells; 10 µM, replicate 2",331147
same,Luminescence Raw1,"DL1 cells; 20 µM, replicate 1",296893
same,Luminescence Raw2,"DL1 cells; 20 µM, replicate 2",291484
same,IC50,DL1 cells; [5],5.02 µM
same,IC50,"DL1 cells; average±SEM, read-out: IC50",5.02 ± 0.22 µM
same,IC50,DL1 cells; [6],4.8 µM
same,IC50,DL1 cells; [7],5.25 µM
